In article PMC12598616, “Design and optimization of caspase-1-responsive fluorescent probes for pyroptosis imaging and anti-pyroptosis drug screening” (Chemical Science, 2025):

Tests used:
[1] = test system: osteoarthritis mouse model (ACL transection); assay: In vivo fluorescence imaging of osteoarthritis; parameters: species or system C57BL/6J mouse; details: injected into joint cavity; 0, 7, 14, 21 days post-surgery
Experimental: (§1) The decline in chondrocyte function plays a crucial role in the pathogenesis of OA. Inflammasome-mediated chondrocyte pyroptosis has been closely associated with matrix degradation and cartilage degeneration in OA.[38] To model OA in vitro, primary chondrocytes were stimulated with H2O2 (2 mM) for different durations, followed by staining with FPy1 (5 μM) and fluorescence imaging to monitor the progression of pyroptosis under oxidative stress. […] To better mimic the in vivo pathological features of OA, primary chondrocytes were also cultured as three-dimensional spheroids and stimulated with H2O2. […] Furthermore, we evaluated the capability of FPy1 to monitor pyroptosis progression at different stages of OA in a mouse model. […] The pathological manifestations in the corresponding tissues became more pronounced with longer modeling periods, consistent with the fluorescence imaging results obtained using FPy1. […]
Harvested rat discs were fixed in 4 % buffered paraformaldehyde for 24 hours, decalcified in 10 % ethylenediaminetetraacetic acid (EDTA, Solarbio, E8030) solution for 1 month, embedded in paraffin, and sectioned at a thickness of 5 μm. […] Stained sections were evaluated by three independent raters, blinded to the research protocol, and measurements were averaged for statistical analysis. […]
In vivo fluorescence imaging of intervertebral disc degeneration […]

[2] = test system: Cas-1 in chondrocyte spheroids; assay: Imaging in chondrocyte 3D cell spheroids; type: cell-based; details: H2O2 2 mM 30, 60, 90 min; FPy1 5 μM; compared with 2D cultures
Experimental: as §1
Chondrocytes were isolated from articular cartilage and resuspended in 1mL DMEM/F12 medium containing 10 μM ITS-A. A total of […] were counted and transferred into centrifuge tubes. […]
The chondrocytes or 3D cell spheroids were seeded in dishes and cultured overnight. […] Fluorescence imaging was then performed with an excitation of 514 nm, and signals were […]

–FLTDG– [FPy1, RhoB donor, hNR quencher]
in vivo fluorescence signals in knee joints [1]: gradually increasing as the modeling duration was extended
fluorescence enhancement in chondrocyte spheroids [2]: more pronounced fluorescence enhancement in chondrocyte spheroids than in two-dimensional cultures
